Some results are limits rather than exact numbers.

In one assay the target is T1, PI3K delta (PI3 Kd) (Homo sapiens, UniProt O00329).
T1 construct: endogenous in cells; host or cells: Jurkat, clone E6-1 (ATCC TIB-152) cell lysate
T1 sequence (O00329 whole entry): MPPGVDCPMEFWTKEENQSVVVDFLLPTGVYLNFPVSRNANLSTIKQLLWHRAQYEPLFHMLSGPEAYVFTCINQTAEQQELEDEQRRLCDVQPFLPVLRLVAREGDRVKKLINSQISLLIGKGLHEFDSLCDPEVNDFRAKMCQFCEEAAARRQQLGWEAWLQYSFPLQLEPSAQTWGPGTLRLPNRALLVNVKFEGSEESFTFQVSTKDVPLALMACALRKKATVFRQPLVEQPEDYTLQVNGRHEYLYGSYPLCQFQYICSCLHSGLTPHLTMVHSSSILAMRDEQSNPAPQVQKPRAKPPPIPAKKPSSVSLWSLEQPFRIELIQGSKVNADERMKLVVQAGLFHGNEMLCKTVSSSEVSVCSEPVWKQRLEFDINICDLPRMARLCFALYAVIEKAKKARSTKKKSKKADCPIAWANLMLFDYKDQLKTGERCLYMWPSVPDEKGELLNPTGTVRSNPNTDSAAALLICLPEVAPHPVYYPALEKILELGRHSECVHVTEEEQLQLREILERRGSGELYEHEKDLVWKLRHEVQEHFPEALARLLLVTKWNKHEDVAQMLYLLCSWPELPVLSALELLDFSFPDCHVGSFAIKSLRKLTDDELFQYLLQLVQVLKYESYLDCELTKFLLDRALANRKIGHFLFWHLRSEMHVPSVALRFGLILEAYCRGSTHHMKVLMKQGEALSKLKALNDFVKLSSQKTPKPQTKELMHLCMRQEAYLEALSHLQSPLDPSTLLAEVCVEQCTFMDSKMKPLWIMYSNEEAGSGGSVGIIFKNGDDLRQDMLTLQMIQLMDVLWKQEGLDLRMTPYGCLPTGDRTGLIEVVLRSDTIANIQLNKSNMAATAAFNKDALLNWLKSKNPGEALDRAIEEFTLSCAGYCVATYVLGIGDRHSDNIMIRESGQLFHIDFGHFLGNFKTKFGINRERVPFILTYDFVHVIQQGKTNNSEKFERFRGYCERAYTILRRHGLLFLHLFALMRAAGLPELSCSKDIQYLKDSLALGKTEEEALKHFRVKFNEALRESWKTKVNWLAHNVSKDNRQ
T1 sequence (P27986 whole entry partner): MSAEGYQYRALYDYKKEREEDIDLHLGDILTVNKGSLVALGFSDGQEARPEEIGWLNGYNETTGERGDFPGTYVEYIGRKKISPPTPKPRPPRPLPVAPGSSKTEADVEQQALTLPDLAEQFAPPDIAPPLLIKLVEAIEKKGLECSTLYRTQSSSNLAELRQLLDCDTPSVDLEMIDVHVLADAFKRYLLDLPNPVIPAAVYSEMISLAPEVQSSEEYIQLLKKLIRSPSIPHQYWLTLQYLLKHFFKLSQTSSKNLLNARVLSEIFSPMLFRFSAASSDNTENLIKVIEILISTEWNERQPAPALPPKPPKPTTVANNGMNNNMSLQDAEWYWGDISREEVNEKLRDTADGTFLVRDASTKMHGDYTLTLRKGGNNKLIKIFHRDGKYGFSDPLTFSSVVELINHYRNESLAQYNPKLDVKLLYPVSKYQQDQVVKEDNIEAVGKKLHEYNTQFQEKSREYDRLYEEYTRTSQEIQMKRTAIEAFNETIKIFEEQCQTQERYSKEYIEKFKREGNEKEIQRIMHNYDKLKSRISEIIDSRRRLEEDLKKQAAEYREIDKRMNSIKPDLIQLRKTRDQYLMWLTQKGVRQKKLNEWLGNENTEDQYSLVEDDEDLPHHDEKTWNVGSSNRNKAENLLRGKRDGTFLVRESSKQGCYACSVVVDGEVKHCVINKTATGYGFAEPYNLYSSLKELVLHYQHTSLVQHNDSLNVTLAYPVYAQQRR
Kind of assay: kinobeads assay, PI3K delta. The class given is binding. The settings on record: kinobeads assay, Table 4; read-out: Inhibition values (IC50) PI3Kd. The method in brief: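 Competitive binding in Jurkat cell lysate (5 mg/ml total protein): test compounds at various concentrations competed with beads bearing immobilized phenylmorpholin-chromen ligand. Bead-bound kinases were eluted and quantified by antibody dot blot with infrared detection; IC50 values came from dose-response curves.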
In the case of `CCNC(=O)Nc1ccc(-c2nc3c(c(N4CCOC[C@@H]4C)n2)CN(C(=O)OC(C)(C)C)C3)cc1` [Example 1, (S)-tert-butyl 2-(4-(3-ethylureido)phenyl)-4-(3-methylmorpholino)-5H-pyrrolo[3,4-d]pyrimidine-6(7H)-carboxylate], the IC50 (usually the concentration that inhibits the measured activity by half) was over 10 µM.
Same read-out and setting: with `CCNC(=O)Nc1ccc(-c2nc3c(c(N4CCOC[C@@H]4C)n2)CCN(C(C)=O)C3)cc1` [Example 59, (S)-1-(4-(7-acetyl-4-(3-methylmorpholino)-5,6,7,8-tetrahydropyrido[3,4-d]pyrimidin-2-yl)phenyl)-3-ethylurea] the figure was over 10 µM; with `CC(=O)N1CCc2c(nc(-c3ccc(NC(=O)NC4CC4)cc3)nc2N2CCOC[C@@H]2C)C1` [Example 62, (S)-1-(4-(7-acetyl-4-(3-methylmorpholino)-5,6,7,8-tetrahydropyrido[3,4-d]pyrimidin-2-yl)phenyl)-3-cyclopropylurea], over 10 µM.

The assay is the same for the next values; noted with them: kinobeads assay, Table 6; read-out: Inhibition values (IC50) PI3Kd.
`CCNC(=O)Nc1ccc(-c2nc3c(c(N4CCOC[C@@H]4C)n2)CN(C(=O)OC(C)(C)C)C3)cc1` [Example 1, (S)-tert-butyl 2-(4-(3-ethylureido)phenyl)-4-(3-methylmorpholino)-5H-pyrrolo[3,4-d]pyrimidine-6(7H)-carboxylate]: the IC50 was over 10 µM.
The same measure, in the same setting: next, `CCNC(=O)Nc1ccc(-c2nc3c(c(N4CCOC[C@@H]4C)n2)CCN(C(C)=O)C3)cc1` [Example 59, (S)-1-(4-(7-acetyl-4-(3-methylmorpholino)-5,6,7,8-tetrahydropyrido[3,4-d]pyrimidin-2-yl)phenyl)-3-ethylurea]: over 10 µM; `CC(=O)N1CCc2c(nc(-c3ccc(NC(=O)NC4CC4)cc3)nc2N2CCOC[C@@H]2C)C1` [Example 62, (S)-1-(4-(7-acetyl-4-(3-methylmorpholino)-5,6,7,8-tetrahydropyrido[3,4-d]pyrimidin-2-yl)phenyl)-3-cyclopropylurea]: over 10 µM; `CC(C)CN1Cc2nc(-c3ccc(NC(=O)NC4CC4)cc3)nc(N3CCOC[C@@H]3C)c2C1` [Example 65, (S)-1-cyclopropyl-3-(4-(6-isobutyl-4-(3-methylmorpholino)-6,7-dihydro-5H-pyrrolo[3,4-d]pyrimidin-2-yl)phenyl)urea]: over 10 µM.
As for `CCNC(=O)Nc1ccc(-c2nc3c(c(N4CCOC[C@@H]4C)n2)CN(CC(C)(C)C)C3)cc1` [Example 67, (S)-1-ethyl-3-(4-(4-(3-methylmorpholino)-6-neopentyl-6,7-dihydro-5H-pyrrolo[3,4-d]pyrimidin-2-yl)phenyl)urea], the IC50 is over 10 µM.
Turning to `CCNC(=O)Nc1ccc(-c2nc3c(c(N4CCOC[C@@H]4C)n2)CN(CC(F)(F)F)C3)cc1` [Example 68, (S)-1-ethyl-3-(4-(4-(3-methylmorpholino)-6-(2,2,2-trifluoroethyl)-6,7-dihydro-5H-pyrrolo[3,4-d]pyrimidin-2-yl)phenyl)urea], the IC50 is over 10 µM.
Same read-out and setting: with `CCNC(=O)Nc1ccc(-c2nc3c(c(N4CCOCC4)n2)CN(C)C3)cc1` [Example 69, 1-Ethyl-3-(4-(6-methyl-4-morpholino-6,7-dihydro-5H-pyrrolo[3,4-d]pyrimidin-2-yl)phenyl)urea] the figure was over 10 µM; with `CCNC(=O)Nc1ccc(-c2nc3c(c(N4CCOCC4)n2)CN(C(=O)OCC)C3)cc1` [Example 70, Ethyl 2-(4-(3-ethylureido)phenyl)-4-morpholino-5H-pyrrolo[3,4-d]pyrimidine-6(7H)-carboxylate], 1 to 10 µM; with `C[C@H]1COCCN1c1nc(-c2ccc(NC(N)=O)cc2)nc2c1CN(C)C2` [Example 71, (S)-1-(4-(6-methyl-4-(3-methylmorpholino)-6,7-dihydro-5H-pyrrolo[3,4-d]pyrimidin-2-yl)phenyl)urea], 1 to 10 µM.
On the same count and under the same terms, next, `Cc1cc(NC(=O)Nc2ccc(-c3nc4c(c(N5CCOC[C@@H]5C)n3)CN(C)C4)cc2)no1` [Example 72, (S)-1-(4-(6-methyl-4-(3-methylmorpholino)-6,7-dihydro-5H-pyrrolo[3,4-d]pyrimidin-2-yl)phenyl)-3-(5-methylisoxazol-3-yl)urea]: over 10 µM.
The same measure, in the same setting: next, `C[C@H]1COCCN1c1nc(-c2ccc(NC(=O)NCCO)cc2)nc2c1CN(C)C2` [Example 73, (S)-1-(2-hydroxyethyl)-3-(4-(6-methyl-4-(3-methylmorpholino)-6,7-dihydro-5H-pyrrolo[3,4-d]pyrimidin-2-yl)phenyl)urea]: 1 to 10 µM.
Take `CCNC(=O)Nc1ccc(-c2nc3c(c(N4CCOC[C@@H]4C)n2)CN(C(C)C)C3)cc1` [Example 74, (S)-1-ethyl-3-(4-(6-isopropyl-4-(3-methylmorpholino)-6,7-dihydro-5H-pyrrolo[3,4-d]pyrimidin-2-yl)phenyl)urea]: the IC50 is over 10 µM.
Same read-out and setting: with `CCNC(=O)Nc1ccc(-c2nc3c(c(N4CCOC[C@@H]4C)n2)CCN(CC(C)C)C3)cc1.O=CO` [Example 76, (S)-1-ethyl-3-(4-(7-isobutyl-4-(3-methylmorpholino)-5,6,7,8-tetrahydropyrido[3,4-d]pyrimidin-2-yl)phenyl)urea formate] the figure was over 10 µM; with `C[C@H]1COCCN1c1nc(-c2ccc(NC(=O)Nc3ccn(C)n3)cc2)nc2c1CN(C)C2` [Example 84, (S)-1-(1-methyl-1H-pyrazol-3-yl)-3-(4-(6-methyl-4-(3-methylmorpholino)-6,7-dihydro-5H-pyrrolo[3,4-d]pyrimidin-2-yl)phenyl)urea], over 10 µM; with `CCNC(=O)Nc1ccc(-c2nc3c(c(N4CCOCC4)n2)CCN(C)C3)cc1` [Example 93, 1-ethyl-3-(4-(7-methyl-4-morpholino-5,6,7,8-tetrahydropyrido[3,4-d]pyrimidin-2-yl)phenyl)urea], over 10 µM.
The same measure, in the same setting: next, `CCNC(=O)Nc1ccc(-c2nc3c(c(N4CCOCC4)n2)CCN(C(=O)NCC)C3)cc1` [Example 94, N-ethyl-2-(4-(3-ethylureido)phenyl)-4-morpholino-5,6-dihydropyrido[3,4-d]pyrimidine-7(8H)-carboxamide]: over 10 µM.
Still for that read-out and setting: next, `CCNC(=O)Nc1ccc(-c2nc3c(c(N4CCOCC4)n2)CCN(C(=O)OCC)C3)cc1` [Example 96, ethyl 2-(4-(3-ethylureido)phenyl)-4-morpholino-5,6-dihydropyrido[3,4-d]pyrimidine-7(8H)-carboxylate]: over 10 µM.
With `CCNC(=O)Nc1ccc(-c2nc3c(c(N4CCOCC4)n2)CCN(C(C)=O)C3)cc1` [Example 97, 1-(4-(7-acetyl-4-morpholino-5,6,7,8-tetrahydropyrido[3,4-d]pyrimidin-2-yl)phenyl)-3-ethylurea], the IC50 is 1 to 10 µM.
Same read-out and setting: next, `CCNC(=O)Nc1ccc(-c2nc3c(c(N4CCOCC4)n2)CCN(C(=O)C(C)(C)C)C3)cc1` [Example 98, 1-ethyl-3-(4-(4-morpholino-7-pivaloyl-5,6,7,8-tetrahydropyrido[3,4-d]pyrimidin-2-yl)phenyl)urea]: over 10 µM.
On to `CCNC(=O)Nc1ccc(-c2nc3c(c(N4CCOCC4)n2)CN(C(=O)C(C)(C)C)C3)cc1` [Example 100, 1-ethyl-3-(4-(4-morpholino-6-pivaloyl-6,7-dihydro-5H-pyrrolo[3,4-d]pyrimidin-2-yl)phenyl)urea], for which the IC50 is over 10 µM.
On the same count and under the same terms, with `C[C@H]1COCCN1c1nc(-c2ccc(NC(=O)NC3CC3)cc2)nc2c1CN(CC(F)(F)F)C2` [Example 101, (S)-1-cyclopropyl-3-(4-(4-(3-methylmorpholino)-6-(2,2,2-trifluoroethyl)-6,7-dihydro-5H-pyrrolo[3,4-d]pyrimidin-2-yl)phenyl)urea] the figure was over 10 µM; with `CCNC(=O)Nc1ccc(-c2nc3c(c(N4CCOC[C@@H]4C)n2)CCN(C(=O)CO)C3)cc1` [Example 102, (S)-1-ethyl-3-(4-(7-(2-hydroxyacetyl)-4-(3-methylmorpholino)-5,6,7,8-tetrahydropyrido[3,4-d]pyrimidin-2-yl)phenyl)urea], over 10 µM; with `CCOC(=O)N1Cc2nc(-c3ccc(NC(=O)NCCO)c(F)c3)nc(N3CCOC[C@@H]3C)c2C1` [Example 104, (S)-ethyl-2-(3-fluoro-4-(3-(2-hydroxyethyl)ureido)phenyl)-4-(3-methylmorpholino)-5H-pyrrolo[3,4-d]pyrimidine-6(7H)-carboxylate], over 10 µM.

These data come from patent publication US8785457B2 (Cellzome Limited, priority 2009, dated 2014).
